Where two headings read alike, the source gives them in different places.
What was measured:
A549 = test: SRB cytotoxicity assay, A549; type: cell-based; settings: Homo sapiens, read-out: IC50 Cytotoxicity A549
Text: (§1) The cell lines MDA-MB-231 (No. TCHu227), A549 (No. TCHu150), and HepG2 (No. TCHu72) were obtained from the Cell Bank/Stem Cell Bank, Chinese Academy of Sciences (Shanghai, China). The cell lines DLD-1 (No. CC0507) and HCT116 (No. CC0506) were obtained from the Cell Bank of Cellcook Biotech Co., Ltd. (Guangzhou, China). Cell line HL-7702 (No. BNCC338358) was obtained from Bena Culture Collection (Zhengzhou, China).
(§2) The human cancer cell lines MDA-MB-231 (breast adenocarcinoma), DLD-1 (colorectal adenocarcinoma), A549 (lung epithelial carcinoma), HCT116 (colorectal adenocarcinoma), HepG2 (hepatocellular carcinoma), and human hepatocyte HL-7702 were cultured in Dulbecco’s modified eagle medium (DMEM, Biological Industries, Beit Haemek, Israel) containing 10% (v/v) fetal bovine serum (FBS, Biological Industries, Beit Haemek, Israel) at 37 °C in a humidified incubator (ThermoFisher, Carlsbad, CA, USA) with a 5% CO2 atmosphere.

HCT116 = test: SRB cytotoxicity assay, HCT116; type: cell-based; settings: Homo sapiens, read-out: IC50 Cytotoxicity HCT116
Text: as §1, §2

MDA-MB-231 = test: SRB cytotoxicity assay, MDA-MB-231; type: cell-based; settings: Homo sapiens, read-out: IC50 Cytotoxicity MDA-MB-231
Text: as §1, §2

HepG2 = test: SRB cytotoxicity assay, HepG2; type: cell-based; settings: Homo sapiens, read-out: IC50 Cytotoxicity HepG2
Text: as §1, §2

DLD-1 = test: SRB cytotoxicity assay, DLD-1; type: cell-based; settings: Homo sapiens, read-out: IC50 Cytotoxicity DLD-1
Text: as §1, §2

[1] = SRB cytotoxicity assay, hepatocyte HL-7702; type: cell-based, human; settings: SRB assay, 48 h, human hepatocyte, mean ± SD, read-out: IC50 Cytotoxicity HL-7702
Text: as §1, §2

DNA Topo I = biological target: T1, DNA Topo I (Homo sapiens, UniProt P11387); test: Topo I inhibition assay (DNA relaxation assay); type: biochemical; settings: for IC50: DNA relaxation assay, pBR322, mean ± SD; for inhibition at 400 µM: read-out: percentage inhibition on Topo I activity
T1 construct: purchased ThermoFisher, Waltham, MA, USA
T1 sequence (P11387 1-765): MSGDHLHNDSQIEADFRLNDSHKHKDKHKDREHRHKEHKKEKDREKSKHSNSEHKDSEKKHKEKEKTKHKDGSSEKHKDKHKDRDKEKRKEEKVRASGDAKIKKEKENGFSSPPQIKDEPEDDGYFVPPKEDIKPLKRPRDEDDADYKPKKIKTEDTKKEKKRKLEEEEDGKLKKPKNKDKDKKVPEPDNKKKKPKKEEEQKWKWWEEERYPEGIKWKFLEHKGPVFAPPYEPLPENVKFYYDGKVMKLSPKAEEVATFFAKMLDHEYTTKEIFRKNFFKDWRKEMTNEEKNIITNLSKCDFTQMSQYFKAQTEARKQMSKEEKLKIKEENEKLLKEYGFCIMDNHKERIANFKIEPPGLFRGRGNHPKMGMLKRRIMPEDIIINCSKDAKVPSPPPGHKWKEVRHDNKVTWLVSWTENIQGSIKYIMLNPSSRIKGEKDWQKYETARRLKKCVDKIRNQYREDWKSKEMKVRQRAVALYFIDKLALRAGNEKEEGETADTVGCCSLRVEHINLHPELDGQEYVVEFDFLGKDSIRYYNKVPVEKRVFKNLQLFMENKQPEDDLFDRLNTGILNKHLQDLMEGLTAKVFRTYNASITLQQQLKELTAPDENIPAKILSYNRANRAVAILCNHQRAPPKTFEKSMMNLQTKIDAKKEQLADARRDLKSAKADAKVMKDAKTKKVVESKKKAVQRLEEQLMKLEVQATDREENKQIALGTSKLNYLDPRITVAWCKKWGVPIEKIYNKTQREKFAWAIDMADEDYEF
Method: The DNA relaxation assay was adopted to investigate the compounds’ inhibitory activities on Topo I. Different concentrations of the compounds, dissolved and diluted in DMSO, were added into the relaxation buffer (50 mM Tris, pH 7.5, 50 mM KCl, 10 mM MgCl2, 0.1 mM EDTA, 0.5 Mm dithiothreitol, and 0.05 mg/mL bovine serum albumin) containing 0.2 U Topo I (ThermoFisher, Waltham, MA, USA) and incubated at room temperature for 10 min. After that, 500 ng supercoiled pBR322 plasmid DNA (ThermoFisher, Waltham, MA, USA) was added and then incubated at 37 °C for another 30 min. Finally, the reactions were stopped with a stopping solution (5% sodium dodecyl sulfate, 0.0025% bromophenol blue, and 25% glycerol), and the mixtures were applied onto 0.8% agarose gel and subjected to electrophoresis for 1.5 h in Tris-Acetate-EDTA buffer. After being stained with GelRed (Biotium, Fremont, CA, USA), the gel was imagined with the imaging system (Biotop, Shanghai, China). […] The band density of the supercoiled DNA was quantified by the ImageJ software (version 1.53a, National Institutes of Health, Bethesda, MD, USA), and the inhibition activity is expressed as the percentage inhibition and calculated by formula: Inhibition % = [(A − B)/(C − B)] × 100%, where A is the band density of the tested samples, B is the band density of the negative control, and C is the band density of the blank control.

DLD-1 cells = test: DNA content analysis (cell cycle, flow cytometry) in DLD-1; type: cell-based, human; settings: 24 h; for percentage of cell population in the G2/M phase / percentage of cells in the G1/S (combined) phase: DLD-1, 2 μM
Method: Cells were seeded in 6-well plates and allowed to adhere for 24 h at 37 °C. After treatment with different concentrations of the samples for another 24 h, the cells were harvested and washed with PBS, and then, the DNA content analysis was conducted with a cell cycle staining kit (Multi sciences, Hangzhou, China), according to the manufacturer’s instructions. The fluorescence intensity of the cells was measured by flow cytometry (Beckman CytoFlex, Miami, FL, USA).

[2] = system: A549, HCT116, MDA-MB-231, HepG2, DLD-1, HL-7702; test: SRB cytotoxicity assay, panel of five human cancer cell lines and one human hepatocyte cell line; settings: tested concentration of 200 μM
Method: The cytotoxicities of 1–29 were tested by an SRB assay on a panel of five human cancer cell lines and one human hepatocyte cell line.
The cytotoxic activities of the compounds against cancer cells were examined with a sulforhodamine B (SRB) colorimetric assay. Cells were seeded at a density of 5 × 10^3/well in 96-well plates for 24 h; various concentrations of the tested compounds, dissolved in DMSO and diluted with the complete medium, were added in the wells in triplicate and incubated for 48 h. After that, the cell viability was assessed with the SRB assay as we described before. The IC50 values were determined using the Reed and Muench method and are expressed as the mean ± SD of at least three independent measurements.

[3] = A549, SRB assay, 48 h, mean ± SD
[4] = HCT-116, SRB assay, 48 h, mean ± SD
[5] = MDA-MB-231, SRB assay, 48 h, mean ± SD
[6] = HepG2, SRB assay, 48 h, mean ± SD
[7] = DLD-1, SRB assay, 48 h, mean ± SD

Row | SMILES | IC50 (DNA Topo I) [µM] | inhibition at 400 µM (DNA Topo I) [%] | IC50 (A549; [3]) [µM] | IC50 (HCT116; [4]) [µM] | IC50 (MDA-MB-231; [5]) [µM] | IC50 (HepG2; [6]) [µM] | IC50 (DLD-1; [7]) [µM] | IC50 at 48 h ([1]; HL-7702 hepatocyte cell line) [µM] | percentage of cells in the G1/S phase (DLD-1 cells; DLD-1, 0.5 μM) [%] | percentage of cells in the G1/S phase (DLD-1 cells; DLD-1, 1 μM) [%] | percentage of cell population in the G2/M phase (DLD-1 cells) [%] | percentage of cells in the G1/S (combined) phase (DLD-1 cells) [%] | cytotoxicity in all cell lines [2] | IC50 (A549; A549, 48 h) [µM] | IC50 (HCT116; HCT-116, 48 h) [µM] | IC50 (MDA-MB-231; MDA-MB-231, 48 h) [µM] | IC50 (HepG2; HepG2, 48 h) [µM] | IC50 (DLD-1; DLD-1, 48 h) [µM] | IC50 at 48 h [1] [µM]
1 | O=c1c(O[C@@H]2O[C@H](CO)[C@H](O)[C@H](O)[C@H]2O)c(-c2ccc(O)cc2)oc2cc(O)cc(O)c12 [Compound 11] | > 400 | 28.6 | > 200 | > 200 | > 200 | > 200 | > 200 | > 200 |  |  |  |  | no cytotoxicity |  |  |  |  |  | 
2 | OCC(O)CC#CC#Cc1ccccc1 (stereo not shown) [Compound 21] | > 400 | 23 | 187 ± 6.63 | > 200 | > 200 | > 200 | > 200 | > 200 |  |  |  |  |  |  |  |  |  |  | 
3 | CC#CC#CC#Cc1ccccc1 [Compound 23] | > 400 | 15.2 | 130 ± 4.93 | 70.9 ± 3.73 | 140 ± 5.53 | 168 ± 10.8 | 123 ± 8.76 | 198.8 ± 0.86 |  |  |  |  |  |  |  |  |  |  | 
4 | CC#CC#CC#CC=CC1OCCCC1OC(C)=O (stereo not shown) [Compound 24] | 218 ± 50.8 |  |  |  |  |  |  |  |  |  |  |  | no cytotoxicity | > 200 | > 200 | > 200 | > 200 | > 200 | > 200
5 | CC#CC#CC#C/C=C/CCC(CCO)O[C@@H]1O[C@H](CO)[C@@H](O)[C@H](O)[C@H]1O (stereo partly shown) [Compound 25] | > 400 |  |  |  |  |  |  |  |  |  |  |  |  | 174 ± 12.3 | 162 ± 15.8 | > 200 | > 200 | 187 ± 17.4 | > 200
6 | CC#CC#CC#C/C=C/CCC(CO)O[C@@H]1O[C@H](CO)[C@@H](O)[C@H](O)[C@H]1O (stereo partly shown) [Compound 26] | > 400 |  | 188 ± 15.8 | > 200 | > 200 | > 200 | > 200 | > 200 |  |  |  |  |  |  |  |  |  |  | 
7 | CC#CC#CC#CC#CCCC(CO)O[C@@H]1O[C@H](CO)[C@@H](O)[C@H](O)[C@H]1O (stereo partly shown) [Compound 27] | > 400 |  | 188 ± 14.9 | 112 ± 6.59 | 164 ± 11.7 | > 200 | 144 ± 7.36 | > 200 |  |  |  |  |  |  |  |  |  |  | 
8 | C=C[C@H](O)[C@H](/C=C/C#CC#CC#CC)O[C@@H]1O[C@H](CO)[C@@H](O)[C@H](O)[C@H]1O [Compound 28] | > 400 |  | 190 ± 12.1 | > 200 | > 200 | > 200 | > 200 | > 200 |  |  |  |  |  |  |  |  |  |  | 

Continued by falling IC50 (DNA Topo I), values first:

Row | IC50 (DNA Topo I) [µM] | inhibition at 400 µM (DNA Topo I) [%] | SMILES | IC50 (A549; [3]) [µM] | IC50 (HCT116; [4]) [µM] | IC50 (MDA-MB-231; [5]) [µM] | IC50 (HepG2; [6]) [µM] | IC50 (DLD-1; [7]) [µM] | IC50 at 48 h ([1]; HL-7702 hepatocyte cell line) [µM] | percentage of cells in the G1/S phase (DLD-1 cells; DLD-1, 0.5 μM) [%] | percentage of cells in the G1/S phase (DLD-1 cells; DLD-1, 1 μM) [%] | percentage of cell population in the G2/M phase (DLD-1 cells) [%] | percentage of cells in the G1/S (combined) phase (DLD-1 cells) [%] | cytotoxicity in all cell lines [2] | IC50 (A549; A549, 48 h) [µM] | IC50 (HCT116; HCT-116, 48 h) [µM] | IC50 (MDA-MB-231; MDA-MB-231, 48 h) [µM] | IC50 (HepG2; HepG2, 48 h) [µM] | IC50 (DLD-1; DLD-1, 48 h) [µM] | IC50 at 48 h [1] [µM]
9 | 301 ± 34.9 |  | OC[C@H](O)CC#CC#Cc1ccc(O)cc1 [Compound 20, (R)-7-(4-hydroxyphenyl) hepta-4,6-diyne-1,2-diol] | 194 ± 12.8 | 174 ± 2.47 | > 200 | > 200 | > 200 | > 200 |  |  |  |  |  |  |  |  |  |  | 
10 | 239 ± 31.4 |  | COc1ccc(-c2oc3c(O)c(OC)c(O)cc3c(=O)c2OC)cc1O [Compound 6] | 3.09 ± 0.28 | 0.59 ± 0.1 | > 200 | 34.6 ± 8.01 | 1.58 ± 0.07 | 23.9 ± 5.73 | 82.61 | 88.65 | 76.49 | 22.91 |  |  |  |  |  |  | 
11 | 224 ± 27.2 |  | COc1cc(-c2oc3cc(O)c(OC)c(O)c3c(=O)c2OC)ccc1O [Compound 7] | 0.86 ± 0.03 | 0.43 ± 0.03 | 81.6 ± 7.43 | 28.4 ± 13.1 | 0.85 ± 0.02 | 11.4 ± 4.42 | 81.16 | 86.07 | 75.75 | 24.26 |  |  |  |  |  |  | 
12 | 178 ± 45.7 |  | CC(O)CC#CC#Cc1ccccc1 (stereo not shown) [Compound 22] | 125 ± 23.4 | 118 ± 5.7 | 146 ± 7.17 | 179 ± 3.62 | 142 ± 10.2 | 161 ± 2.18 |  |  |  |  |  |  |  |  |  |  | 
